{
  "source": "patent US20040076622A1",
  "about": "“Local production and/or delivery of anti-cancer agents by stromal cell precursors” (Board of Regents, The University of Texas System, priority 2002, published 2004)",
  "molecules": {"B1": {"name": "MDA7: melanoma differentiation associated protein 7, classified as interleukin-24 (protein, UniProt Q13007 52-206, looked up)", "Interleukin-24": "QEFHFGPCQVKGVVPQKLWEAFWAVKDTMQAQDNITSARLLQQEVLQNVSDAESCYLVHTLLEFYLKTVFKNYHNRTVEVRTLKSFSTLANNFVLIVSQLQPSQENEMFSIRDSAHRRFLLFRRAFKQLDVEAALTKALGEVDILLTWMQKFYKL"}},
  "key": {"KBM5 cells": {"test_system": "KBM5 cells", "assay": "Growth inhibition of KBM5 cells by STI and IFN-α", "type": "cell-based", "details": "ST1571 0.5, 1.0, 2.0 tmol; IFNα 2,000, 5,000, 10,000 U", "excerpt": "(§1) The effects of IFNA and ST1571 on STI-resistant KBM5 cells were studied."}, "KBM5-STI cells": {"test_system": "KBM5-STI cells", "assay": "Growth inhibition of STI-resistant KBM5 cells by STI and IFN-α", "type": "cell-based", "details": "for Growth inhibition of KBM5-STI cells: ST1571 0.5, 1.0, 2.0 tmol, IFNα 2,000, 5,000, 10,000 U", "excerpt": "as §1"}, "CML": {"test_system": "CML", "details": "cited from earlier work"}, "melanoma": {"test_system": "melanoma", "details": "cited from earlier work"}, "MFP-regulated promoter": {"test_system": "MFP-regulated promoter", "assay": "MFP dependent induction of IFN-α from AAV-infected MSC (ELISA)", "type": "cell-based, human", "details": "MSC infected with MFP regulated AAV", "procedure": "Regulated expression from a drug inducible AAV vector. An AAV construct was used that expressed IFN-α under the control of a MFP-regulated promoter, to infect normal donor MSC in vitro. Briefly, MSC were infected with 10^3 GE of AAV-IFN-α and 10^3 GE of AAV-gal4prlMFP, and expanded for 10 additional days. These cells were subcultured into 12 well dished were MFP (dissolved in 0.1% ETOH) or solvent carrier was added at the concentrations noted. MSC infected w/ the MFP regulated AAV, express IFN-α only after 18 h exposure to MFP (FIG. 4A). Three drug concentrations were tested, each dose was 10-fold less than the previous one, and with the initial dose of 10^−7 M being 3 logs less than the dose commonly given for chemical abortions in humans. Of note is that a one-time addition of MFP results in a prolonged 8-10 day expression of IFN-α, peaking at 4-5 days after drug addition. […] Ten days after IFN-α level reached background activity we waited 3 additional days and added another dose of 10^-8 M MFP. […]\nExemplary methods for harvesting, culture, and infection of MSC. […] Forty-eight hours later cells are analyzed for βgal expression using X-gal histochemical staining or analysis with FACS utilizing CM-FDG, as in Marini et al. (1999). […] Six to 24 h later, supernatant is collected and analyzed via Quantikine IFN-α ELISA (Biosource International Inc Camarillio Calif.)."}, "[1]": {"assay": "Systemic expression of IFN-α after intramuscular injection of AAV in mice (ELISA)", "type": "in vivo, mouse", "details": "one application of MFP given IP, mice injected with inducible AAVs", "procedure": "In vivo testing. To initiate a in vivo culture model of CML, two BCR-ABL+ cell lines, the K562 (which grow extramedullary in nu/nu mice) or BV173 (which grows intra bone marrow in BalbC/nu mice) were injected into respective mice. […] Utilizing the BV173 cell line we tested three cell doses and found one million BV173 cells were sufficient to kill the mice within 45 days, whereas 5×10^5 BV173 cells allowed the mice to survive for 60+ days with one mice still surviving. […] As an alternative to using MSCs as a cell based therapy, the AAV vectors may be directly inject into the muscle, thereby allowing secretion of IFN-α systemically. Evaluation of this route of delivery was performed by an intramuscular injection of […] AAV-CMV-IFN-α or 5×10^10 GE of AAV-Gal4hPRL-65AD and 5×10^10 GE of AAV-G5E-IFN-α into the quadriceps of mice. Mice were bled weekly and the serum was analyzed for IFN-α expression using the Biosource ELISA kit. As shown in FIG. 9 circulating levels of hIFN-α was detected in the peripheral blood, and more importantly, it was identified over the high background level seen in these nu/nu animals. […] Using this mouse model circulating levels of human IFN-α were detected. Human MSC may also be detected using molecular, fluorescent, and immunohistochemical approaches."}, "MSC": {"test_system": "MSC", "assay": "Effect of MDA7 on growth of the MSC", "type": "cell-based", "details": "MSC growth not affected", "procedure": "MSC were infected with a β-gal MDA7 adenovirus provided by Dr. Sunil Chada (Introgen, Houston, Tex.) at 50, 500, 5,000, and 25,000 MOI. All experiments were performed in duplicate supernatant from control and MDA7-MSC was obtained and added to KBM5 and KBM5-STI cells and assayed at 24 and 72 hours. Co-cultures of β-gal MDA7-MSC and control MSC with KBM5 (STI-sensitive) and KBM5-STI (STI-resistant) cells were also performed, with the MSC growing to near-confluency and 0.125×10^6 cells/mL plated on the MSC in 12 well plates. All wells were assayed at 24 and 72 hours."}, "[2]": {"details": "patients with chronic phase CML"}},
  "note": "Like-named read-outs stand apart in the source and are kept apart here.",
  "data": [
    {"molecule": "Cc1ccc(NC(=O)c2ccc(CN3CCN(C)CC3)cc2)cc1Nc1nccc(-c2cccnc2)n1", "note": "[ST1571]", "values": [
      {"measurement": "Growth inhibition of KBM5 cells", "setting": "KBM5 cells", "value": "highly sensitive"},
      {"measurement": "Growth inhibition of KBM5-STI cells", "setting": "KBM5-STI cells", "value": "resistant"},
      {"measurement": "Complete cytogenetic remissions", "setting": "CML; [2]", "value": 95, "unit": "%"},
      {"measurement": "Hematological remission", "setting": "CML; [2]", "value": "> 90", "unit": "%"},
      {"measurement": "RT-PCR negativity", "setting": "CML; [2]", "value": 8, "unit": "%"}
    ]},
    {"molecule": "IFNα", "values": [
      {"measurement": "Growth inhibition of KBM5 cells", "setting": "KBM5 cells", "value": "pronounced growth inhibitory effects"},
      {"measurement": "Growth inhibition of KBM5-STI cells", "setting": "KBM5-STI cells", "value": "but not on KBM5-STI cells"},
      {"measurement": "Enhancement of the STI effect by IFNα", "setting": "KBM5-STI cells; in vitro, KBM5 and KBM5-STI cells", "value": "did not enhance the STI effect"},
      {"measurement": "CCR's lost", "setting": "CML; CML patients at 5 years", "value": 42, "unit": "%"},
      {"measurement": "CCR's lost", "setting": "CML; CML patients at 8 years", "value": 50, "unit": "%"},
      {"measurement": "Patients able to maintain high concentrations", "setting": "CML; patients who received INFα for CML", "value": "less than 30%"},
      {"measurement": "Overall response rate", "setting": "melanoma; advanced melanoma", "value": 20, "unit": "%"},
      {"measurement": "Improvement in the fraction of patients who are disease-free", "setting": "melanoma; high risk melanoma", "value": 42, "unit": "%"}
    ]},
    {"molecule": "CC#C[C@]1(O)CC[C@H]2[C@@H]3CCC4=CC(=O)CCC4=C3[C@@H](c3ccc(N(C)C)cc3)C[C@@]21C", "note": "[MFP, mifpristone]", "values": [
      {"measurement": "Time of peak IFN-α expression after drug addition", "setting": "MFP-regulated promoter", "value": "4 to 5", "unit": "days"},
      {"measurement": "Duration of IFN-α expression after a one-time addition of MFP", "setting": "MFP-regulated promoter; 18 h exposure", "value": "8 to 10", "unit": "days"},
      {"measurement": "Period over which the single peak of IFN-α activity decays", "setting": "[1]", "value": 7, "unit": "days"}
    ]},
    {"molecule": "B1", "values": [
      {"measurement": "Toxic effects on MSC", "setting": "MSC", "value": "no toxic effects"}
    ]}
  ]
}
